Holding throughout (type): biochemical
Holding throughout (settings): in vitro

One assay deals with dopamine reuptake. The experiment in a line: dopamine (DUP) reuptake blockade. The protocol: (§1) Measurement of dopamine (DUP), serotonin (SUP) and noradrenaline NUP) reuptake blockade was carried out using the methods described in Neuropharmacology Vol. 27, No. 3, pp. 251-260, 1988 and results are presented in Table 1 below.
The next assay deals with serotonin reuptake. Briefly: serotonin (SUP) reuptake blockade. As to the method:
as §1

For the next assay, the target named is noradrenaline reuptake. Briefly: noradrenaline (NUP) reuptake blockade. The protocol:
as §1

Where a name gives a salt, the structure may show the parent alone.

For the compound `Cl.Clc1ccc(C2CN3CCN=C3c3ccccc32)cc1` (racemic) [Example 2a, (rac)6-(4-chlorophenyl)-2,3,5,6-tetrahydroimidazo[2,1-a]isoquinoline hydrochloride], the “DUP (pKi)” value on dopamine reuptake is recorded as 7.15. Also, the “SUP (pKi)” value at serotonin reuptake is 7.4. In addition, on noradrenaline reuptake, the “NUP (pKi)” value stood at 7.9.

As for `Fc1ccc(C2CN3CCN=C3c3ccccc32)cc1` (racemic) [Example 2b, (rac)-6-(4-Fluorophenyl)-2,3,5,6-tetrahydroimidazo[2,1-a]isoquinoline], the “DUP (pKi)” value on dopamine reuptake is 6.5. In addition, the “SUP (pKi)” value at serotonin reuptake turned out to be 7.5. Moreover, on noradrenaline reuptake, the “NUP (pKi)” value came to 7.65.

With `Cc1ccc(C2CN3CCN=C3c3ccccc32)cc1` (racemic) [Example 2c, (rac)-2,3,5,6-Tetrahydro-6-(4-methylphenyl)imidazo[2,1-a]isoguinoline (Z)-2-butenedioate (1:1) salt], on dopamine reuptake, the “DUP (pKi)” value is listed as 7.05. Further, the “SUP (pKi)” value on serotonin reuptake turned out to be 6.9. Further, the “NUP (pKi)” value on noradrenaline reuptake is recorded as 7.75.

As to `Clc1ccc(C2CN3CCN=C3c3ccccc32)cc1` (single isomer, unassigned; (+)) [Example 4, (+)-6-(4-Chlorophenyl)-2,3,5,6-tetrahydroimidazo[2,1-a]isoquinoline (E)-2-butenedioate (1:1) salt], the “DUP (pKi)” value on dopamine reuptake is 7.2. The “SUP (pKi)” value on serotonin reuptake is recorded as 7.0. At noradrenaline reuptake, the “NUP (pKi)” value was 8.15.

Regarding `Fc1ccc(C2CN3CCN=C3c3ccccc32)cc1` (single isomer, unassigned; (+)) [Example 7, (+)-6-(4-Fluorophenyl)-2,3,5,6-tetrahydroimidazo[2,1-a]isoquinoline (E)-2-butenedioate (1:1) salt], at dopamine reuptake, the “DUP (pKi)” value came out at 6.45. The “SUP (pKi)” value on serotonin reuptake is listed as 6.25. Besides, the “NUP (pKi)” value on noradrenaline reuptake amounted to 7.75.

`Clc1ccc(C2CN3CCN=C3c3ccccc32)cc1` (single isomer, unassigned; (-)) [Example 3, (-)-6-(4-chlorophenyl)-2,3,5,6-tetrahydroimidazo[2,1-a]isoquinoline (E)-2-butenedioate (1:1) salt]: on dopamine reuptake, the “DUP (pKi)” value amounted to 7.15. Besides, the “SUP (pKi)” value at serotonin reuptake stood at 7.3. Besides, the “NUP (pKi)” value on noradrenaline reuptake is on record as 8.1.

On to `Fc1ccc(C2CN3CCN=C3c3ccccc32)cc1` (single isomer, unassigned; (-)) [Example 6, (-)-6-(4-fluorophenyl)-2,3,5,6-tetrahydroimidazo[2,1-a]isoquinoline (E)-2-butenedioate (1:1) salt], for which the “DUP (pKi)” value on dopamine reuptake is reported as 6.6. The “SUP (pKi)” value on serotonin reuptake amounted to 7.9. In addition, the “NUP (pKi)” value on noradrenaline reuptake is given as 7.5.
